These results are taken from PMC4494766 (Monatshefte Fur Chemie, 2011).

For orientation: MIC means the least concentration at which growth counts as inhibited. Read a high MIC as weaker potency.

Each structure is given as a SMILES string. Values after ≈ are worked out from the molar mass of the structure shown.

In this test the test system is M. tuberculosis wild-type strain sp. 210 resistant to PAS, INH, ETB and RFP. In words: Tuberculostatic activity, test-tube successive dilution in Youmans' medium. It is filed as cell-based. To be noted: Mycobacterium tuberculosis.

Regarding `CSC(=NNC(=O)c1ccccc1Cl)SC` [Compound 2, Dimethyl 2-chlorobenzoylcarbonohydrazonodithioate], the MIC worked out at 50 µg/mL (≈ 182 µM).
As for `CSC(=NNC(=O)c1ccc(Cl)cc1)SC` [Compound 3, Dimethyl 4-chlorobenzoylcarbonohydrazonodithioate], the figure is 25 µg/mL (≈ 91 µM).
As for `CSC(=NNC(=O)c1ccc(Cl)cc1Cl)SC` [Compound 4, Dimethyl 2,4-dichlorobenzoylcarbonohydrazonodithioate], the figure is 50 µg/mL (≈ 162 µM); as for `CSC(=NNC(=O)c1ccc(Cl)c(Cl)c1)SC` [Compound 5, Dimethyl 3,4-dichlorobenzoylcarbonohydrazonodithioate], 12.5 µg/mL (≈ 40.4 µM).
The value for `CSC(=NNC(=O)c1ccccc1[N+](=O)[O-])SC` [Compound 6, Dimethyl 2-nitrobenzoylcarbonohydrazonodithioate] was 50 µg/mL (≈ 175 µM); that for `CSC(=NNC(=O)c1ccccc1O)SC` [Compound 8, Dimethyl 2-hydroxybenzoylcarbonohydrazonodithioate] was 25 µg/mL (≈ 97.5 µM); that for `CSC(=NNC(=O)c1cccc(O)c1)SC` [Compound 9, Dimethyl 3-hydroxybenzoylcarbonohydrazonodithioate] was 25 µg/mL (≈ 97.5 µM).
For the molecule `CSC(=NNC(=O)c1ccc(O)cc1)SC` [Compound 10, Dimethyl 4-hydroxybenzoylcarbonohydrazonodithioate], 25 µg/mL (≈ 97.5 µM) was the least that counted as inhibitory (MIC).
As for `COc1ccc(C(=O)NN=C(SC)SC)cc1` [Compound 11, Dimethyl 4-methoxybenzoylcarbonohydrazonodithioate], the figure is 25 µg/mL (≈ 92.5 µM); as for `COc1cc(C(=O)NN=C(SC)SC)cc(OC)c1OC` [Compound 12, Dimethyl 3,4,5-trimethoxybenzoylcarbonohydrazonodithioate], 50 µg/mL (≈ 151 µM); as for `COc1ccc(CC(=O)NN=C(SC)SC)cc1OC` [Compound 13, Dimethyl 2-(3,4-dimethoxyphenyl)acetylcarbonohydrazonodithioate], 50 µg/mL (≈ 159 µM).
